Reference: patent US20220089636A1, “TETRAZOLONE SUBSTITUTED STEROIDS AND USE THEREOF” (Beijing Xuanyi PharmaSciences Co., Ltd., priority 2019, published 2022)
Like-named read-outs stand apart in the source and are kept apart here.

Columns and labels:
[1] = system: PTZ-treated mice; test: Acute PTZ (pentylenetetrazol-induced seizure) assay; format: in vivo, Male CD-1 mice; details: 3 mg/kg oral gavage 60 min prior to PTZ 120 mg/kg s.c.; observed 30 min
Experimental: The anticonvulsant effect of test compounds were assessed in the pentylenetetazol-induced seizure assay in mice similar to methods described in Giardina & Gasior (2009) Curr Protoc Pharmacol., Chapter 5. Male CD-1 mice were housed in groups of five under controlled conditions (temperature of 22±2° C. and 12:12 light-dark cycle, lights on at 8:00 am) and water and food were available ad libitum. The mice were housed for 1 week prior to behavioral testing, at which time they weighed 25-35 g. Pentylenetetrazol (PTZ, Sigma) was dissolved in sterile 0.9% saline at a concentration of 12 mg/mL concentration for subcutaneous administration. Test compounds were formulated and administered via oral gavage at 60 minutes prior to PTZ injection. AU solutions were made fresh and were given in a volume of 10 ml/kg body weight.
Mice were acclimated to the test room for at least 30 min before compound administration. Mice were randomized into at least four test groups (vehicle and at least three doses of the test compound) with 10 mice per group. […] Following the drug pretreatment time, the mice were injected s.c. with PTZ (120 mg/kg). Immediately following the PTZ injection, mice were individually placed into observation chambers (25×15×15 cm) and a three-channel timer was started. Each mouse was continuously observed for 30 min and the following behaviors were recorded by observers blinded to the treatments: 1) latency to clonic convulsions that persist for 3 sec and followed by an absence of righting reflex 2) latency to tonic convulsions, characterized by the rigid extension of all four limbs that exceeded a 90 degree angle with the body 3) latency to death 4) number of clonic and tonic convulsions. Data are presented as mean±S.E.M and one-way analysis of variance with Dunnetfs or Bonferroni's post-hoc test was used to detect significant differences in latency and number between the vehicle and dose group, p values<0.05 were regarded as statistically significant.

[2] = Mouse PK study (i.v. and p.o.); format: in vivo; details: plasma, male CD1 mice; for half-life: read-out: T1/2 (hr) i.v. (converted); for Vd: read-out: Vss; for bioavailability: 5 mg/kg p.o. vs 1 mg/kg i.v.
Experimental: Test compounds were dosed to male CD1 mice at 5 mg/kg by oral gavage (p.o.) or 1 mg/kg by intravenous injection (i.v.). Blood samples were taken at 0.083, 0.25, 0.5, 1.0, 3.0, 6.0 and 24 hours post i.v. dosing and at 0.25, 0.5, 1.0, 3.0, 6.0 and 24 hours post p.o. dosing. The plasma concentration of compounds were determined by HPLC.

[3] = molecular target: T1, α1β2γ2 GABAA receptor (Homo sapiens, UniProt P14867+P47870); test: Patch clamp electrophysiology assay of recombinant α1β2γ2 GABAA receptors (potentiation of 2 μM GABA-evoked Cl- current); format: cell-based; details: HEK293T cells stably transfected with α1β2γ2 GABAA; whole cell, 2 μM GABA, -80 mV
T1 construct: expressed in transfected cells
T1 sequence (P14867 28-456): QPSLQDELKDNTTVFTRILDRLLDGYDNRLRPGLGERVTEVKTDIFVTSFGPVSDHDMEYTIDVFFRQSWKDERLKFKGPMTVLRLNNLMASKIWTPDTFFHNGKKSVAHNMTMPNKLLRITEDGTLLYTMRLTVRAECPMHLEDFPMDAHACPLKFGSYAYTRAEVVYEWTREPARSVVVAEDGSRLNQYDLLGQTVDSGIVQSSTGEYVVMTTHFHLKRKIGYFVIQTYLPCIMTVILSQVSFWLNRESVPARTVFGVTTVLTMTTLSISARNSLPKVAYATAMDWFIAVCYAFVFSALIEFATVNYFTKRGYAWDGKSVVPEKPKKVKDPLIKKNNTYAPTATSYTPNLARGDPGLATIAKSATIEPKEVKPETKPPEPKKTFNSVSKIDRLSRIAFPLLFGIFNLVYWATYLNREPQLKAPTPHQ
T1 sequence (P47870 25-512 limits assumed): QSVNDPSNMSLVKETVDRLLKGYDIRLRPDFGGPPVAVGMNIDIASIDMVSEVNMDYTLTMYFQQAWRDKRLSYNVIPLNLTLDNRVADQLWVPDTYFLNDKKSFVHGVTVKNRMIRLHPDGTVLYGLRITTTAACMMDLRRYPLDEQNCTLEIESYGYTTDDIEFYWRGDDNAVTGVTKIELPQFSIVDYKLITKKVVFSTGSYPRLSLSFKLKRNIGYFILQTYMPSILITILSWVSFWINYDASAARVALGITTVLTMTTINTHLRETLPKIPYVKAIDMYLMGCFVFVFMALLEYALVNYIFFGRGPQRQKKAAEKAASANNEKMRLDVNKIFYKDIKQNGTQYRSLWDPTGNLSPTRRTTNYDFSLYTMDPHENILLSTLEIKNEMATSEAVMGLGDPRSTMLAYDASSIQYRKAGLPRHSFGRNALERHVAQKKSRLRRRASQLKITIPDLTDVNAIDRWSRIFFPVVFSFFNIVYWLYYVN
T1 sequence (P18507 40-475 partner): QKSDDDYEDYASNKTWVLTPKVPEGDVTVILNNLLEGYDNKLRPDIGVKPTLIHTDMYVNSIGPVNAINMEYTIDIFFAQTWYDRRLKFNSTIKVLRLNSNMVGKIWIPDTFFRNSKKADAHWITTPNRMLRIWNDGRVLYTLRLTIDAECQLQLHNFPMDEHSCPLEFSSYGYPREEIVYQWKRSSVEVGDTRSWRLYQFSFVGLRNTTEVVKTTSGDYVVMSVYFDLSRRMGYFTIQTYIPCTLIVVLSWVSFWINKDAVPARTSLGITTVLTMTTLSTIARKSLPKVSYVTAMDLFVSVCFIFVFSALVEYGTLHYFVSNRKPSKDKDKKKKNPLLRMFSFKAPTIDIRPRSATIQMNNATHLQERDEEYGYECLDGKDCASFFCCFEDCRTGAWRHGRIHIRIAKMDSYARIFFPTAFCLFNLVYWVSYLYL
In short: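 Whole-cell voltage clamp at −80 mV on HEK293T cells stably expressing human α1β2γ2 GABAA. Compounds applied for 3 min, then 2 μM GABA (EC10–EC20) applied to assess potentiation of Cl− current. Ascending 0.003–10 μM concentrations tested on each cell, 180 s apart, with Rm >500 MΩ, Ra <15 MΩ and leak <100 pA as cell criteria.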

[4] = iv, 1 mg/kg i.v., read-out: AUClast (hr*ng/mL) i.v.
[5] = po, 5 mg/kg p.o., read-out: AUClast (hr*ng/mL) p.o.

Row | SMILES | Clonic Seizure Latency (sec) (Mean) [1] | Clonic Seizure Number (Mean) [1] | Mortality (%) [1] | Onset of death (sec) (Mean) [1] | Tonic Seizure Latency (sec) (Mean) [1] | Tonic Seizure Number (Mean) [1] | clearance ([2]; iv, 1 mg/kg i.v.) | AUC(0-t) [2, 4] | half-life ([2]; iv, 1 mg/kg i.v.) | Vd ([2]; iv, 1 mg/kg i.v.) | Cmax ([2]; po, 5 mg/kg p.o.) | Tmax ([2]; po, 5 mg/kg p.o.) | bioavailability ([2]; po) | AUC(0-t) [2, 5] | EC50 [3]
1 | Cn1nccc1-n1nnn(CC(=O)[C@H]2CC[C@H]3[C@@H]4CC[C@@H]5C[C@](C)(O)CC[C@@H]5[C@H]4CC[C@]23C)c1=O [Example 26, 1-(2-((3R,5R,8R,9R,10S,13S,14S,17S)-3-hydroxy-3,13-dimethylhexadecahydro-1H-cyclopenta[a]phenanthren-17-yl)-2-oxoethyl)-4-(1-methyl-1H-pyrazol-5-yl)-1,4-dihydro-5H-tetrazol-5-one] | 1547.8 ± 139.2 s | 0.3 ± 0.2 | 0.0% | 1800 + 0.0 sec | 1800 + 0.0 sec | 0.0 + 0.0 | 15.7 mL/min/kg | 1010 ng·h/mL | 1.39 h | 1.75 L/kg | 827 ng/mL | 1 h | 77.1% | 3910 ng·h/mL | 64 nM
2 | C[C@@]1(O)CC[C@H]2[C@H](CC[C@@H]3[C@@H]2CC[C@]2(C)[C@@H](C(=O)Cn4nnn(-c5cn[nH]c5)c4=O)CC[C@@H]32)C1 [Example 28, 1-(2-((3R,5R,8R,9R,10S,13S,14S,17S)-3-hydroxy-3,13-dimethylhexadecahydro-1H-cyclopenta[a]phenanthren-17-yl)-2-oxoethyl)-4-(1H-pyrazol-4-yl)-1,4-dihydro-5H-tetrazol-5-one] | 573.1 ± 124.9 s | 1.7 ± 0.3 | 40% | 1594.7 ± 107.0 s | 1586.3 ± 109.8 s | 0.4 ± 0.2 | 7.17 mL/min/kg | 2180 ng·h/mL | 6.12 h | 2.9 L/kg | 563 ng/mL | 6 h | 77.3% | 8420 ng·h/mL | 140 nM
